Source: article PMC5362750, “Discovery of Potent, Selective, and Orally Bioavailable Small-Molecule Modulators of the Mediator Complex-Associated Kinases CDK8 and CDK19” (Journal of Medicinal Chemistry, 2016)
≈ marks a conversion by molar mass, not a printed value. Where two headings read alike, the source gives them in different places.

Columns and labels:
[1] = Thermodynamic solubility determination; format: physicochemical; conditions: phosphate buffer, pH 7.4, 37 °C, read-out: Solubility Therm.
[2] = Caco-2 Papp determination; conditions: human, Caco-2, pH 7.4
[3] = In vivo mouse PK; conditions: for Vd / clearance / bioavailability: female, NMRI, plasma; for Vd / clearance: iv; for clearance: Cl; for bioavailability: po, 0.5 mg/kg

| Structure (SMILES) | solubility at 24 h ([1]; pH 7.4, TFA salt) | Papp A→B at 2 h, 1 μM [2] | efflux ratio at 2 h, 1 μM [2] | Vd ([3]; 0.2 mg/kg) | clearance ([3]; 0.2 mg/kg, 0.2 mg/kg iv) | bioavailability [3] | solubility at 24 h ([1]; pH 7.4, free base) | Cl ([3]; 0.2 mg/kg iv, 0.2 mg/kg) |
| --- | --- | --- | --- | --- | --- | --- | --- | --- |
| O=C1NCCC12CCN(c1c(Cl)cncc1-c1ccc(-c3cnn(CCO)c3)cc1)CC2 [Compound 17] | 112 µg/mL | 22.7 ×10⁻⁶ cm/s | 19.5 | 1.61 L/kg | 47.2 mL/min/kg | 7% |  |  |
| CC(C)(O)Cn1cc(-c2ccc(-c3cncc(Cl)c3N3CCC4(CCNC4=O)CC3)cc2)cn1 [Compound 18] |  | 32 ×10⁻⁶ cm/s | 26.1 | 0.8 L/kg | 16.5 mL/min/kg |  | 33 µg/mL (≈ 68.7 µM) |  |
| CN(C)CCn1cc(-c2ccc(-c3cncc(Cl)c3N3CCC4(CCNC4=O)CC3)cc2)cn1 [Compound 19] |  | 25.4 ×10⁻⁶ cm/s | 12.4 |  |  |  |  |  |
| O=C1NCCC12CCN(c1c(Cl)cncc1-c1ccc(-c3cnn(CCN4CCCC4)c3)cc1)CC2 [Compound 20] |  | 30.4 ×10⁻⁶ cm/s | 5.3 |  |  |  |  |  |
| Cc1nc(-c2ccc(-c3cncc(Cl)c3N3CCC4(CCNC4=O)CC3)cc2)cn1C [Compound 21] | 33 µg/mL | 18.8 ×10⁻⁶ cm/s |  | 6.41 L/kg | 278 mL/min/kg | 12% |  |  |
| CN1c2ccc(-c3cncc(Cl)c3N3CCC4(CCNC4=O)CC3)cc2CS1(=O)=O [Compound 23, 8-(3-Chloro-5-(1-methyl-2,2-dioxido-1,3-dihydrobenzo[c]isothiazol-5-yl)pyridin-4-yl)-2,8-diazaspiro[4.5]decan-1-one] |  | 29 ×10⁻⁶ cm/s | 3.3 |  |  |  |  |  |
| CN1c2cc(-c3cncc(Cl)c3N3CCC4(CCNC4=O)CC3)ccc2CS1(=O)=O [Compound 24] |  | 33.8 ×10⁻⁶ cm/s | 11 |  |  |  |  |  |
| Nc1n[nH]c2cc(-c3cncc(Cl)c3N3CCC4(CCNC4=O)CC3)ccc12 [Compound 25, 8-(3-(3-Amino-1H-indazol-6-yl)-5-chloropyridin-4-yl)-2,8-diazaspiro[4.5]decan-1-one] | 540 µg/mL | 0.03 ×10⁻⁶ cm/s |  | 1.21 L/kg | 29.2 mL/min/kg | 5% |  |  |
| Cn1cc(-c2ccc(-c3cncc(Cl)c3N3CCC4(CC3)CNC(=O)O4)cc2)cn1 [Compound 41] |  | 30.6 ×10⁻⁶ cm/s | 2.4 |  |  |  |  |  |
| CN1c2ccc(-c3cncc(Cl)c3N3CCC4(CC3)CNC(=O)O4)cc2CS1(=O)=O [Compound 42, 8-(3-Chloro-5-(1-methyl-2,2-dioxido-1,3-dihydrobenzo[c]isothiazol-5-yl)pyridin-4-yl)-1-oxa-3,8-diazaspiro[4.5]decan-2-one] | 53 µg/mL | 16.6 ×10⁻⁶ cm/s |  | 1.34 L/kg | 47.7 mL/min/kg |  |  |  |
| Cn1cc(-c2ccc(-c3cncc(Cl)c3N3CCC4(CC3)NCNC4=O)cc2)cn1 [Compound 44] |  | 19.1 ×10⁻⁶ cm/s |  | 1.12 L/kg | 51.2 mL/min/kg | 20% |  |  |
| Cn1cc(-c2ccc(-c3cncc(Cl)c3N3CCC4(CC3)NC(=O)NC4=O)cc2)cn1 [Compound 45] | 39 µg/mL | 15.9 ×10⁻⁶ cm/s |  | 1.26 L/kg | 26 mL/min/kg | 11% |  |  |
| CN1c2ccc(-c3cncc(Cl)c3N3CCC4(CC3)NC(=O)NC4=O)cc2CS1(=O)=O [Compound 46] |  | 3.3 ×10⁻⁶ cm/s | 126 |  |  |  |  |  |
| CC1=NC2(CCN(c3c(Cl)cncc3-c3ccc4c(c3)CS(=O)(=O)N4C)CC2)C(=O)N1 [Compound 47] | 613 µg/mL | 19.8 ×10⁻⁶ cm/s |  | 1.96 L/kg | 69.2 mL/min/kg | 9% |  |  |
| Cn1cc(-c2ccc(-c3cncc(Cl)c3N3CCC4(CC3)NC(=O)CNC4=O)cc2)cn1 [Compound 48] | 8 µg/mL | 6.7 ×10⁻⁶ cm/s |  | 1.84 L/kg | 71.2 mL/min/kg | 5% |  |  |
| CN(C)CCC1(C#N)CCN(c2c(Cl)cncc2-c2ccc3c(c2)CS(=O)(=O)N3C)CC1 [Compound 51] |  | 35.3 ×10⁻⁶ cm/s |  |  |  |  |  |  |
| COCCN1CCCC12CCN(c1c(Cl)cncc1-c1ccc3c(c1)CS(=O)(=O)N3C)CC2 [Compound 54, 5-(5-Chloro-4-(1-(2-methoxyethyl)-1,8-diazaspiro[4.5]decan-8-yl)pyridin-3-yl)-1-methyl-1,3-dihydrobenzo[c]isothiazole 2,2-Dioxide] |  | 34.3 ×10⁻⁶ cm/s | 1.7 |  |  |  |  |  |
| CN1c2ccc(-c3cncc(F)c3N3CCC4(CCNC4=O)CC3)cc2CS1(=O)=O [Compound 61, 8-(3-Fluoro-5-(1-methyl-2,2-dioxido-1,3-dihydrobenzo[c]isothiazol-5-yl)pyridin-4-yl)-2,8-diazaspiro[4.5]decan-1-one] |  | 32.9 ×10⁻⁶ cm/s | 3 | 1.86 L/kg | 132 mL/min/kg | 5% |  | 132 mL/min/kg |

| Structure (SMILES) | solubility at 24 h ([1]; pH 7.4, TFA salt) | Papp A→B at 2 h, 1 μM [2] | efflux ratio at 2 h, 1 μM [2] | Vd ([3]; 0.2 mg/kg) | clearance ([3]; 0.2 mg/kg, 0.2 mg/kg iv) | bioavailability [3] | solubility at 24 h ([1]; pH 7.4, free base) | Cl ([3]; 0.2 mg/kg iv, 0.2 mg/kg) |
| --- | --- | --- | --- | --- | --- | --- | --- | --- |
| CN1c2ccc(-c3cncc(F)c3N3CCC4(CC3)CNC(=O)O4)cc2CS1(=O)=O [Compound 63, 8-(3-Fluoro-5-(1-methyl-2,2-dioxido-1,3-dihydrobenzo[c]isothiazol-5-yl)pyridin-4-yl)-1-oxa-3,8-diazaspiro[4.5]decan-2-one] |  | 16 ×10⁻⁶ cm/s | 6.5 | 2.67 L/kg | 87.5 mL/min/kg | 27% |  |  |
| Cn1cc(-c2ccc(-c3cncc(C(F)(F)F)c3N3CCC4(CC3)CNC(=O)O4)cc2)cn1 [Compound 72, 8-(3-(4-(1-Methyl-1H-pyrazol-4-yl)phenyl)-5-(trifluoromethyl)pyridin-4-yl)-1-oxa-3,8-diazaspiro[4.5]decan-2-one 2,2,2-Trifluoroacetate] | 35 µg/mL | 47.4 ×10⁻⁶ cm/s |  | 2.3 L/kg | 30.3 mL/min/kg | 48% |  |  |
| Cn1cc(-c2ccc(-c3cnc(N)c(Cl)c3N3CCC4(CCNC4=O)CC3)cc2)cn1 [Compound 85] |  | 37 ×10⁻⁶ cm/s | 4.9 | 0.74 L/kg | 11.2 mL/min/kg | 61% |  |  |
| CC(C)(O)Cn1cc(-c2ccc(-c3cnc(N)c(Cl)c3N3CCC4(CCNC4=O)CC3)cc2)cn1 [Compound 86, 8-(2-Amino-3-chloro-5-(4-(1-(2-hydroxy-2-methylpropyl)-1H-pyrazol-4-yl)phenyl)pyridin-4-yl)-2,8-diazaspiro[4.5]decan-1-one] |  | 25.4 ×10⁻⁶ cm/s | 42.7 | 1.22 L/kg | 17.8 mL/min/kg | 7% |  |  |
| CN1c2ccc(-c3cnc(N)c(Cl)c3N3CCC4(CCNC4=O)CC3)cc2CS1(=O)=O [Compound 88] |  | 19.3 ×10⁻⁶ cm/s | 5.8 |  |  |  |  |  |
| Cn1cc(-c2ccc(-c3cnc(N)c(Cl)c3N3CCC4(CC3)CNC(=O)O4)cc2)cn1 [Compound 89] | 5 µg/mL | 48.3 ×10⁻⁶ cm/s |  | 1.4 L/kg | 22.5 mL/min/kg | 35% |  |  |
| CN1c2ccc(-c3cnc(N)c(Cl)c3N3CCC4(CC3)CNC(=O)O4)cc2CS1(=O)=O [Compound 90] | 2 µg/mL | 10.3 ×10⁻⁶ cm/s |  | 1.81 L/kg | 36 mL/min/kg | 9% |  |  |
| Cn1cc(-c2ccc(-c3cnc(N)c(Cl)c3N3CCC4(CC3)NC(=O)NC4=O)cc2)cn1 [Compound 91] | < 1 µg/mL | 9.6 ×10⁻⁶ cm/s |  |  |  |  |  |  |
| CN1c2ccc(-c3cnc(N)c(F)c3N3CCC4(CCNC4=O)CC3)cc2CS1(=O)=O [Compound 92, 8-(2-Amino-3-fluoro-5-(1-methyl-2,2-dioxido-1,3-dihydrobenzo[c]isothiazol-5-yl)pyridin-4-yl)-2,8-diazaspiro[4.5]decan-1-one] |  | 23.9 ×10⁻⁶ cm/s | 29.5 | 0.86 L/kg | 21.3 mL/min/kg | 37% |  |  |
| CN1c2ccc(-c3cnc(N)c(F)c3N3CCC4(CC3)CNC(=O)O4)cc2CS1(=O)=O [Compound 93] |  | 4 ×10⁻⁶ cm/s | 81 |  |  |  |  |  |
| Cn1cc(-c2ccc(-c3cnc(N)c(C(F)(F)F)c3N3CCC4(CCNC4=O)CC3)cc2)cn1 [Compound 94] |  | 20.7 ×10⁻⁶ cm/s |  |  |  |  |  |  |
| Cn1cc(-c2ccc(-c3cnc(N)c(C(F)(F)F)c3N3CCC4(CC3)CNC(=O)O4)cc2)cn1 [Compound 95, 8-(2-Amino-5-(4-(1-methyl-1H-pyrazol-4-yl)phenyl)-3-(trifluoromethyl)pyridin-4-yl)-1-oxa-3,8-diazaspiro[4.5]decan-2-one 2,2,2-Trifluoroacetate] | 8 µg/mL | 29.1 ×10⁻⁶ cm/s |  | 1.93 L/kg | 25 mL/min/kg | 42% |  |  |
| CNc1n[nH]c2cc(-c3cncc(Cl)c3N3CCC4(CCNC4=O)CC3)ccc12 [Compound 100, 8-(3-Chloro-5-(3-(methylamino)-1H-indazol-6-yl)pyridin-4-yl)-2,8-diazaspiro[4.5]decan-1-one] |  | 28.8 ×10⁻⁶ cm/s |  |  |  |  |  |  |
| Cn1nc(N)c2ccc(-c3cncc(Cl)c3N3CCC4(CCNC4=O)CC3)cc21 [Compound 101, 8-(3-(3-Amino-1-methyl-1H-indazol-6-yl)-5-chloropyridin-4-yl)-2,8-diazaspiro[4.5]decan-1-one 2,2,2-Trifluoroacetate] |  | 39 ×10⁻⁶ cm/s |  |  |  |  |  |  |
| CN(C)c1nn(C)c2cc(-c3cncc(Cl)c3N3CCC4(CCNC4=O)CC3)ccc12 [Compound 102, 8-(3-Chloro-5-(3-(dimethylamino)-1-methyl-1H-indazol-6-yl)pyridin-4-yl)-2,8-diazaspiro[4.5]decan-1-one] |  | 45.9 ×10⁻⁶ cm/s |  |  |  |  |  |  |
| CN1CNC(=O)C12CCN(c1c(Cl)cncc1-c1ccc(-c3cnn(C)c3)cc1)CC2 [Compound 104] |  | 30.6 ×10⁻⁶ cm/s |  |  |  |  |  |  |
| CC(C)n1cc(-c2ccc(-c3cnc(N)c(Cl)c3N3CCC4(CCNC4=O)CC3)cc2)cn1 [Compound 108] |  | 37.4 ×10⁻⁶ cm/s |  |  |  |  |  |  |
| Cn1ncc2cc(-c3cnc(N)c(Cl)c3N3CCC4(CC3)CNC(=O)O4)ccc21 [Compound 110] |  | 33.4 ×10⁻⁶ cm/s |  |  |  |  |  |  |
